This note sets out measurements from patent US10301304B2, “Selective inhibitor of phosphatidylinositol 3-kinase-gamma” (VERTEX PHARMACEUTICALS INCORPORATED, priority 2013, dated 2019).

Assay [1] relates to CSF-1 stimulated pAkt in THP-1 cells (PI3Kα/β/δ). In words: CSF-1 Stimulated pAkt in THP-1 Cells. As to conditions: Homo sapiens; THP-1/CSF-1/pAkt, PI3K-alpha/beta/delta dependent; read-out: IC50 Avg +/− SD. The class given is cell-based. The procedure: Growth factors, cytokines and other ligands of receptor tyrosine kinases, like CSF1, bind to their receptors leading to activation of the class IA PI3K signaling pathway. PI3K activation leads to generation of PIP3 and activation of downstream molecules like PDK-1 and Akt. Akt phosphorylation is a measure of PI3K activity in the cell. THP-1 cells (a human monocytic cell line) are starved overnight to deplete pAkt levels. Stimulation with CSF-1 for 5 minutes leads to PI3Kα/β/δ induced phoshorylation of Akt at the Threonine 308 and Serine 473 sites. Cells were fixed and stained for intracellular phosphoAkt (Ser 473) then analyzed on the BD FACSCalibur™ cytometer. This is a measure of cellular Class IA PI3K inhibition.

Another assay concerns the target PI3K-α (Homo sapiens, UniProt P42336). In words: PI3K Inhibition Assay. The class given is biochemical. The procedure:
(§1) Using a Biomek FX from Beckman Coulter, 1.5 μL of each of ten 2.5-fold serial dilutions of the compound of the invention in 100% DMSO was added to an individual well (hereafter, “test well”) in a 96 well polystyrene plate [Corning, Costar Item No. 3697]. One test well also contained 1.5 μL of DMSO with no compound. […] Using a Titertek Multidrop, 50 μL of Reaction Mix [100 mM HEPES pH 7.5, 50 mM NaCl, 10 mM DTT, 0.2 mg/mL BSA, 60 μM phosphatidylinositol(4,5)-bisphosphate diC16 (PI(4,5)P2; Avanti Polar Lipids, Cat. No. 840046P) and PI3K isoform of interest (see Table 1 for isoform concentrations)] was added to each well. To initiate the reaction, 50 μL of ATP Mix [20 mM MgCl2, 6 μM ATP (100 μCi/μmole ^33P-ATP was added to each well, followed by incubating the wells for 30 min. at 25° C. Final concentrations in each well were 50 mM HEPES 7.5, 10 mM MgCl2, 25 mM NaCl, 5 mM DTT, 0.1 mg/mL BSA, 30 μM PI(4,5)P2, 3 μM ATP, and the PI3K isoform of interest (see Table 2). Final compound concentrations in each well ranged from 10 μM to 1 nM.
(§2) After incubation, the reactions in each well were quenched by addition of 50 μL of stop solution [30% TCA/Water, 10 mM ATP]. Each quenched reaction mixture was then transferred to a 96 well glass fiber filter plate [Corning, Costar Item No. 3511]. The plate was vacuum-filtered and washed three times with 150 μL of 5% TCA/water in a modified Bio-Tek Instruments ELX-405 Auto Plate Washer. 50 μL of scintillation fluid was added to each well and the plate read on a Perkin-Elmer TopCount™ NXT liquid scintillation counter to obtain ^33P-counts representing inhibition values.
(§3) The value for the background well was subtracted from the value obtained for each test well and the data were fit to the competitive tight binding Ki equation described by Morrison and Stone, Comments Mol. Cell Biophys. 2: 347-368, 1985. […] In addition, isoform selectivity was also seen as Compound 1 was tested against PI3K-alpha, PI3K-beta, and PI3K-delta isoforms and was determined to have a selectivity of greater than 15 fold for PI3K-gamma as shown in Table 2.

The next assay concerns the target PI3K-δ (Homo sapiens, UniProt O00329). In words: PI3K Inhibition Assay. It is filed as biochemical. The procedure:
as §1, §2, §3

The target of a further assay is PI3K-γ (Homo sapiens, UniProt P48736). In words: PI3K Inhibition Assay. It is filed as biochemical. The procedure: as §1, §2, §3
For a further assay, the target named is PI3K-β (Homo sapiens, UniProt P42338). In words: PI3K Inhibition Assay. It is filed as biochemical. The procedure:
as §1, §2, §3

Another assay has as its system CD40 induced colitis. In words: CD40 induced colitis (IBD) model, body weight loss. The class given is in vivo, mouse. The procedure:
The PI3Kγ inhibitor, Compound 1, was tested in a CD40 induced colitis model to determine its effect on disease course. The CD40 model of IBD is induced by injecting an anti-CD40 monoclonal antibody (agonist, i.e., activating antibody versus neutralizing antibody) into T and B cell deficient mice (Rag 1−/− mice) to induce both systemic and intestinal inflammation that leads to colitis and wasting disease via the innate immune pathway. (See, e.g., Immunity 25, 309-318, August 2006). Briefly, Rag1 knock-out mice were injected IP with the anti-CD40 monoclonal antibody FGK45. Starting on Day 0, mice were treated with PBS, vehicle or Compound 1 at 5 mg/kg b.i.d. or 10 mg/kg b.i.d. Compound 1 was administered IP for 7 days on a 10/14-hour b.i.d. dosing regimen. Compound 1 was formulated in 5% NMP/15% PEG-400/80% in a 0.5% HPMC-E50 solution in water. At study termination, serum and colon samples were collected at 2 hours following the last dose for drug concentration analysis. Body weights were measured daily during the study. Compound 1 concentrations were analyzed in the plasma samples collected 2 hours following the final dose at study termination. Concentrations were determined using a high performance liquid chromatography/tandem mass spectrometry (HPLC/MS/MS) method.

The next assay has as its target CYP3A4 (Homo sapiens, UniProt P08684). In words: Inhibition of CYP Enzymes in Human Liver Microsomes. The class given is in vitro ADME. More on the design: evaluated in human liver microsomes using the IC50 shift assay; from tissue; host or cells: human liver microsomes. As to the method:
Inhibition assays were conducted with selective CYP probes for each CYP enzyme at specific concentrations of substrate (close to its dissociation constant (Km) value). Compound 1 was a moderate inhibitor of CYP 1A2, 2B6 and 2C8; […]
(Liver microsomes are a subcellular fraction often used to study metabolism.)

By Ki is commonly meant a measure of affinity in units of concentration, obtained from inhibition or displacement. Higher therefore signals weaker binding.

The structures appear in SMILES notation. A value given as a limit tells only on which side of the number the result lay.

Chain of PI3K-γ (P48736 whole entry, species assumed): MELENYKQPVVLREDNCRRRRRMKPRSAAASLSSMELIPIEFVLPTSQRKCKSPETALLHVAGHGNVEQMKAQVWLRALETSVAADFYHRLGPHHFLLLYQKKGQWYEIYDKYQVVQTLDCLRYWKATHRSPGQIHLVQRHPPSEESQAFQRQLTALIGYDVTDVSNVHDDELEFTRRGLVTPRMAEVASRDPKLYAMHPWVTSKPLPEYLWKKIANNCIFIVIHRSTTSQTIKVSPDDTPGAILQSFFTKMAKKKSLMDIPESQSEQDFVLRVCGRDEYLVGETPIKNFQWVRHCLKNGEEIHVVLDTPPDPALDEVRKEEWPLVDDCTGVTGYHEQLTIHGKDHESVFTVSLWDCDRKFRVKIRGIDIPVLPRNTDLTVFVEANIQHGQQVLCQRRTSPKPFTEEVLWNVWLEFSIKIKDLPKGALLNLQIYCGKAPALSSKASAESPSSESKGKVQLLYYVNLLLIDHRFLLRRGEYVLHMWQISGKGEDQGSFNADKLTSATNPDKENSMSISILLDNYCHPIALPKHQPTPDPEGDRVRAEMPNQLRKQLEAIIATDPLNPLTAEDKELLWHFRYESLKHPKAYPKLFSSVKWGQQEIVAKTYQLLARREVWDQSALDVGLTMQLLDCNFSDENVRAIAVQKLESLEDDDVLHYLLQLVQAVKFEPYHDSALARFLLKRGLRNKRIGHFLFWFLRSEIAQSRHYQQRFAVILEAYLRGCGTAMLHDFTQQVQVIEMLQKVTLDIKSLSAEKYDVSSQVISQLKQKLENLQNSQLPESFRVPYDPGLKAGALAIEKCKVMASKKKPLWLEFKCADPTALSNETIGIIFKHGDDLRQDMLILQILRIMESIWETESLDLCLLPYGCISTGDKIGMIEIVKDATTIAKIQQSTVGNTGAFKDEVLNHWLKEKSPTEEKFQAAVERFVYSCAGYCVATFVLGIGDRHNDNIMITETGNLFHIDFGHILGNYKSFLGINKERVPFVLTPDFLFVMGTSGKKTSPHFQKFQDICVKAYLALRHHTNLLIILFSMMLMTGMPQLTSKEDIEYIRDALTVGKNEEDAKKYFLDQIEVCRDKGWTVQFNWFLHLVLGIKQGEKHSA
Chain of CYP3A4 (P08684 whole entry): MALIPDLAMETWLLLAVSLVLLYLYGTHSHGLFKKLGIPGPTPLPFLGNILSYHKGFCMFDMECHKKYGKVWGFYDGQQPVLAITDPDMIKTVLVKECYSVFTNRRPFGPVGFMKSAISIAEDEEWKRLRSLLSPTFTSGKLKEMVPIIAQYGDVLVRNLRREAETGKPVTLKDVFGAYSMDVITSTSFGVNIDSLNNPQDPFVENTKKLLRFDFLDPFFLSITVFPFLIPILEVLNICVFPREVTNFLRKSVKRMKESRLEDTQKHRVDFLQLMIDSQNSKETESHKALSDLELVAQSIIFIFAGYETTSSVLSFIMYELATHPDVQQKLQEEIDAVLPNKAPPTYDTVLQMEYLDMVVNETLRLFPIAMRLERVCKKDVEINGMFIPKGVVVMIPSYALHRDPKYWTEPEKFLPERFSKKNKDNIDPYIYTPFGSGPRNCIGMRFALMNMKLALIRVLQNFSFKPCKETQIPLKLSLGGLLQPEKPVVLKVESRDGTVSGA
Chain of PI3K-δ (O00329 whole entry, species assumed): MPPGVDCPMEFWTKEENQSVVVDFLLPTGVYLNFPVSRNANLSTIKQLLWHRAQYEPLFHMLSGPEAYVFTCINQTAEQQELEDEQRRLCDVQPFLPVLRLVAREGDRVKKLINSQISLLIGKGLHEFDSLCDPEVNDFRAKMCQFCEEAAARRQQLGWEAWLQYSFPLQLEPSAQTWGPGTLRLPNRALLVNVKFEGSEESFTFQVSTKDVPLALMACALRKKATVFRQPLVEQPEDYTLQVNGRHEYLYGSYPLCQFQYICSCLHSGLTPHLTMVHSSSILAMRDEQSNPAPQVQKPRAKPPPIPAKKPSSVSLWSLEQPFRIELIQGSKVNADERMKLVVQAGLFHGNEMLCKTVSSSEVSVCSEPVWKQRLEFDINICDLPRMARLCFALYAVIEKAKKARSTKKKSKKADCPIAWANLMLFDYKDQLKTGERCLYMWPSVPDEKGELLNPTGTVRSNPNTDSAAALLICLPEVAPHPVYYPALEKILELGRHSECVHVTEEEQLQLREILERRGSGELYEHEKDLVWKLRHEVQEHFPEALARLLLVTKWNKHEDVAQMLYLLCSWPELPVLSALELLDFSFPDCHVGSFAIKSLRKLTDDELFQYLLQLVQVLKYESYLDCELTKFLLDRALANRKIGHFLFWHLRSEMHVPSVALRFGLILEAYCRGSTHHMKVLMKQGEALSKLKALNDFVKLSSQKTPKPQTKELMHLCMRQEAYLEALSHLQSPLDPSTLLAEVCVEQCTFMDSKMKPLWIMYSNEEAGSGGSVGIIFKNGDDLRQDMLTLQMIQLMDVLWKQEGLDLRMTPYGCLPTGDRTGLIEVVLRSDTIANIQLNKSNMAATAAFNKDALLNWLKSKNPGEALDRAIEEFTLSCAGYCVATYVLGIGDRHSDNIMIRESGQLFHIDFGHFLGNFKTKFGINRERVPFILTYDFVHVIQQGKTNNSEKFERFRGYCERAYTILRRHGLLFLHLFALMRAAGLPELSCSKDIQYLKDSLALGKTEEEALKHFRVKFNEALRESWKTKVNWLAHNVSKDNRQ
Chain of PI3K-δ (P27986 whole entry partner, species assumed): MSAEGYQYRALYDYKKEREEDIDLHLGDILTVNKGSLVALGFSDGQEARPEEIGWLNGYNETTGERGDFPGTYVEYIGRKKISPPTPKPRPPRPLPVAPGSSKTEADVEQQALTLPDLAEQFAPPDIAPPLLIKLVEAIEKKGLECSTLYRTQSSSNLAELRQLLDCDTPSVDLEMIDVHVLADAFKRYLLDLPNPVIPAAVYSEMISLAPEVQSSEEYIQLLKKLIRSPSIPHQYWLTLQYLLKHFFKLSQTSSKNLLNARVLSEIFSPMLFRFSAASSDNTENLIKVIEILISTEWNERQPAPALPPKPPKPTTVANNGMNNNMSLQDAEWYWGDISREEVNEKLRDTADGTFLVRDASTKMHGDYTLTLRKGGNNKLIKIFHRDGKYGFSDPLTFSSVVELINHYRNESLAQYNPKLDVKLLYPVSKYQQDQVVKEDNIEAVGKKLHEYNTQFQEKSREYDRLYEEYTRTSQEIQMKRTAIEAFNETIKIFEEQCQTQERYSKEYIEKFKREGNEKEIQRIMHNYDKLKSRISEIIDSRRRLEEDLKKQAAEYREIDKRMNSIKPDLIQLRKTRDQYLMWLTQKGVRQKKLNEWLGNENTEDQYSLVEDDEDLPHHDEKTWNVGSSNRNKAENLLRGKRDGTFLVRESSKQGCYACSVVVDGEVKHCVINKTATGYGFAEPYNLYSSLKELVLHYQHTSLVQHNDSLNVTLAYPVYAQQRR
Chain of PI3K-α (P42336 whole entry, species assumed, canonical isoform): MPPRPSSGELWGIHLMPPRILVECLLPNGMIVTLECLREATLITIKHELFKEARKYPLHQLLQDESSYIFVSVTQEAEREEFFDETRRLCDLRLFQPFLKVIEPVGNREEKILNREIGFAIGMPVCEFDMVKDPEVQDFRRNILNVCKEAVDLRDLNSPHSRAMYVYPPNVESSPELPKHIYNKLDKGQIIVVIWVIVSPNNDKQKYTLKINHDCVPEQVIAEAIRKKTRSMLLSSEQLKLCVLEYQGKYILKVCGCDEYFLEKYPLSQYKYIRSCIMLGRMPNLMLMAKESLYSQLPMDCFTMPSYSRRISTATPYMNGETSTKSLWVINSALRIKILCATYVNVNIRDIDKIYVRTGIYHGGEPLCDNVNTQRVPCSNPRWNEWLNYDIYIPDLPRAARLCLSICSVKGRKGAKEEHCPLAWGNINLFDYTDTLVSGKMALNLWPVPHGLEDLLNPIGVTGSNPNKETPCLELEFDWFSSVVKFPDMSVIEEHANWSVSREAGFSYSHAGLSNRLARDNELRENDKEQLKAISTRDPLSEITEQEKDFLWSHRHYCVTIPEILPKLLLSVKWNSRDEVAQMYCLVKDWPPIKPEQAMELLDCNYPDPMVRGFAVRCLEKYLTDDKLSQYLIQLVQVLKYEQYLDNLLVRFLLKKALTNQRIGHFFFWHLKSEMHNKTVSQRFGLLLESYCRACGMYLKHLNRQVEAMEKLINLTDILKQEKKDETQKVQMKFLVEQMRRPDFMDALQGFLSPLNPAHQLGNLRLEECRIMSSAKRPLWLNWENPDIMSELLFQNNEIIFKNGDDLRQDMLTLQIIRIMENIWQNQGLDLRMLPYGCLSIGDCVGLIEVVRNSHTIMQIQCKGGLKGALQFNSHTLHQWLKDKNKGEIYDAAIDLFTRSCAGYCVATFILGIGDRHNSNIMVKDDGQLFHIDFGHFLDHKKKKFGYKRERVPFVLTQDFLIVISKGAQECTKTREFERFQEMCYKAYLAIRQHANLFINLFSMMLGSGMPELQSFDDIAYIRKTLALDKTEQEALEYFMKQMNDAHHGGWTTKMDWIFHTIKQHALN
Chain of PI3K-α (P27986 whole entry partner, species assumed, canonical isoform): as the sequence (P27986 whole entry partner, species assumed) above

Consider `Cc1cc(-c2cncc([C@@H](O)C(F)(F)F)c2)nc2c1C(=O)N(c1cnn(CC(F)F)c1)C2(C)C` [Compound 1, (R)-6-(1-(2,2-difluoroethyl)-1H-pyrazol-4-yl)-4,7,7-trimethyl-2-(5-(2,2,2-trifluoro-1-hydroxyethyl)pyridin-3-yl)-6,7-dihydro-5H-pyrrolo[3,4-b]pyridin-5-one], for which the IC50 was > 9700 nM in assay [1]; 19000 nM on CYP3A4 (CYP3A4, 2.5 μM Midazolam); > 75000 nM on CYP3A4 (CYP3A4, 50 μM Testosterone). Besides, the inhibitory constant (Ki) at PI3K-α (PI3Kα) came to 280 ± 90 nM; on PI3K-δ (PI3Kδ), 160 ± 50 nM; at PI3K-γ (PI3K-gamma, ATP-competitive) it was 8 nM; on PI3K-β (PI3Kβ), 220 ± 30 nM. The “Fold Selectivity” value on PI3K-α (PI3Kγ over PI3Kα) was 30 fold; on PI3K-δ (PI3Kγ over PI3Kδ), 19 fold; on PI3K-β (PI3Kγ over PI3Kβ), 26 fold. For the same compound, on PI3K-γ (against PI3K-alpha, PI3K-beta and PI3K-delta isoforms), the “selectivity for PI3K-gamma” value is “greater than 15 fold”. Further, the “body weight loss (FIG. 4)” value in the assay with CD40 induced colitis (5 mg/kg b.i.d. IP, *p<0.05 d3, **p<0.01 d4, vs vehicle) is recorded as “significantly inhibited”; with CD40 induced colitis (10 mg/kg b.i.d. IP, ***p<0.001 d3-4, vs vehicle), “significantly inhibited”.
